The source of these data is article PMC9104438, “Application of a Fluorescence Anisotropy-Based Assay to Quantify Transglutaminase 2 Activity in Cell Lysates” (International Journal of Molecular Sciences, 2022).

One may read the IC50 as the concentration that inhibits the measured activity by half. Read a low IC50 as greater potency. The term kinact/KI denotes the maximal inactivation rate divided by the concentration that gives half of it. As a reminder, the Km is the concentration of substrate that gives half-maximal velocity.

Series [1] addresses T1, hTGase 1 (Homo sapiens, UniProt P22735).
T1 sequence (P22735 1-817): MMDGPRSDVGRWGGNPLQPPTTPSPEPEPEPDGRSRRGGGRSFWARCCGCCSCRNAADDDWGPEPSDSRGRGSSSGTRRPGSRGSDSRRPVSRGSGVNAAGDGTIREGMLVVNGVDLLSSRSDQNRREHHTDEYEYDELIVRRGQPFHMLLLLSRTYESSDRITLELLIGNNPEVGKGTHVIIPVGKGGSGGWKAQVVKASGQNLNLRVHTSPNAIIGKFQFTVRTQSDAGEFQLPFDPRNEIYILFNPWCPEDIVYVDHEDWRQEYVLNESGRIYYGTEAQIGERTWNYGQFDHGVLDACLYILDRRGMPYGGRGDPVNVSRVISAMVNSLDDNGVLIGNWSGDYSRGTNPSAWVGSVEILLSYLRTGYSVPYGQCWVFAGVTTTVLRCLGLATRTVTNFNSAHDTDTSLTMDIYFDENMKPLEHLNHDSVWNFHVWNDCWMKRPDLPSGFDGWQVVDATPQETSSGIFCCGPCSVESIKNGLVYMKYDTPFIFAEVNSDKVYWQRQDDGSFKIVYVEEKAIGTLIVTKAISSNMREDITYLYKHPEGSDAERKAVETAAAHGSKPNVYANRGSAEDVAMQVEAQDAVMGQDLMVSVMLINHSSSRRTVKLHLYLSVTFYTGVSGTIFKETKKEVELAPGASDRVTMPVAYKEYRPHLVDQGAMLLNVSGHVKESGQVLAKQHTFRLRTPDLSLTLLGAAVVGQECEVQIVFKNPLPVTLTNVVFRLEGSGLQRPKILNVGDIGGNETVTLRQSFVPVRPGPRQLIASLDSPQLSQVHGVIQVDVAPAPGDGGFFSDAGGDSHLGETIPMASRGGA
The series is described as follows: FA-based assay, characterization of irreversible inhibitors.

Series [2] has as its target T2, hTGase 2 (Homo sapiens, UniProt P21980).
T2 sequence (P21980 1-687): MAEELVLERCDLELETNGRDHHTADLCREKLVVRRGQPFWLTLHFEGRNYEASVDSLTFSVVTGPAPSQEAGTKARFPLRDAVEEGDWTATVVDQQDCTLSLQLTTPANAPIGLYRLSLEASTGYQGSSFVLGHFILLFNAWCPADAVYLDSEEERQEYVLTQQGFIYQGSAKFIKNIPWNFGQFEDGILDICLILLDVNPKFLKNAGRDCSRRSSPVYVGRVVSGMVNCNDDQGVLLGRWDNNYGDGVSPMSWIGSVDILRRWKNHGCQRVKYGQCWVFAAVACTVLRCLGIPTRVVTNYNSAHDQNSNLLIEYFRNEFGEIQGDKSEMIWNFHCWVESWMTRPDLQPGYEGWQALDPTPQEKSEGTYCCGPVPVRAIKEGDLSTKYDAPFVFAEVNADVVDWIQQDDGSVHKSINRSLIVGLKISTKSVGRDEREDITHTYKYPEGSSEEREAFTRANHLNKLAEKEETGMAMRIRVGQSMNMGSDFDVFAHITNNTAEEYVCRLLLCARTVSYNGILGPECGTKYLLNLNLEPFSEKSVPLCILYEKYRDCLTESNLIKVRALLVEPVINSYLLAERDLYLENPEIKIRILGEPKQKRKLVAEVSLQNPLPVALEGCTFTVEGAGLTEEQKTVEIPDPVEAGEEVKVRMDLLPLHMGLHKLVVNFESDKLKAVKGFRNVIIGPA
Briefly: Fluorimetric activity assay (substrate Z-Glu(HMC)-Gly-OH). The arrangement: purchased Zedira T022. The format is biochemical. To be noted: mean (SEM) of 2 experiments. As for the experimental part: The kinetic characterization of compounds 3 and 4 by means of their kinact/KI values was performed using a fluorimetric activity assay (substrate Z-Glu(HMC)-Gly-OH) as described recently.

Series [3] addresses T2, hTGase 2. Further details: purchased Zedira T022; method as in PMID 29664627. To be noted: fluorimetric activity assay; mean (SEM); cited from earlier work.
Series [4] concerns the target T3, hFXIIIa (Homo sapiens, UniProt P00488).
T3 sequence (P00488 39-732 limits assumed): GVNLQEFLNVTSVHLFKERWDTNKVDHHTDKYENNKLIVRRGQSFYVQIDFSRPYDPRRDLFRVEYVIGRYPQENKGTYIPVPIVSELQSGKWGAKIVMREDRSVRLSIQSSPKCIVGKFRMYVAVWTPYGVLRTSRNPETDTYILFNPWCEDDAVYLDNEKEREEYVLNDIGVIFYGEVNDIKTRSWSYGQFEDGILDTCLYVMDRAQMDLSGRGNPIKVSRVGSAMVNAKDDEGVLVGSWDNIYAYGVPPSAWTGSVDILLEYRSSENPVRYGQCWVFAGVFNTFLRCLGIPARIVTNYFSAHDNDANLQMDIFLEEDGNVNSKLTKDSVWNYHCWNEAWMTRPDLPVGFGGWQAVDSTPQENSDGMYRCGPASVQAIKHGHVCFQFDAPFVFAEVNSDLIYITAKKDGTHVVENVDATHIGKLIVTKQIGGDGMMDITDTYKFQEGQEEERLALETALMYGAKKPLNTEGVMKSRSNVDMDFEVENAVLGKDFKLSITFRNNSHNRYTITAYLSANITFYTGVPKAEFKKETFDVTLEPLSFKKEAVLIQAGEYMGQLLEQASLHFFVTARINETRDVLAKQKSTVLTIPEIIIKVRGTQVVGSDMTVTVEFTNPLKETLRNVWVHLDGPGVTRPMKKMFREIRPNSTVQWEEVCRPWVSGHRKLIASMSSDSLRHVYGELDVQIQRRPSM
The series is described as follows: FA-based assay, kinetic characterization of acyl donor DMC with R-I-Cad. It counts as biochemical. The arrangement: purchased Zedira T070. To be noted: hFXIIIa 5 µg/mL, R-I-Cad 0.74 µM, mean (SEM). As for the experimental part: For the kinetic characterization of DMC (Figure 1B) in the presence of a fixed concentration of R-I-Cad (0.74 µM), eight different concentrations of DMC (0.3–300 µM) were used (2–3 separate experiments, each performed in duplicate). The corresponding stock solutions of DMC and R-I-Cad were prepared in assay buffer A and DMSO, respectively. […] Values for Km, Ki and Vmax were calculated according to the equation of substrate inhibition (Equation (2)). (2) v=Vmax∗[S]/Km+[S]∗(1+[S]/Ki)

Where only a bound is given, the exact number is not on record here.

Consider `C=CC(=O)NCCCC[C@H](NC(=O)Cc1ccccc1)C(=O)N1CCN(c2cccc(-c3cn(CCOCCOCCOCCNC(=O)CCCC[C@@H]4SC[C@@H]5NC(=O)N[C@@H]54)nn3)n2)CC1` [Compound 4, N-(2-(2-(2-(2-(4-(6-(4-(N^6-acryloyl-N^2-(2-phenylacetyl)-L-lysyl)piperazin-1-yl)pyridin-2-yl)-1H-1,2,3-triazol-1-yl)ethoxy)ethoxy)ethoxy)ethyl)-5-((3aS,4S,6aR)-2-oxohexahydro-1H-thieno[3,4-d]imidazol-4-yl)pentanamide], for which the IC50 in series [1] came out at 4.56 µM. In addition, the second-order inactivation constant (kinact/KI) in series [2] worked out at 7260 M⁻¹ s⁻¹.

With `C=CC(=O)NCCCC[C@H](NC(=O)Cc1ccccc1)C(=O)N1CCN(c2cccc(C)n2)CC1` [Compound 1], the half-maximal inhibitory concentration (IC50) in series [1] was over 30 µM. Further, the “kinact/KI hTGase 2” value in series [3] was 4880 (20)^c M^−1s^−1.

`C#Cc1cccc(N2CCN(C(=O)[C@H](CCCCNC(=O)C=C)NC(=O)Cc3ccccc3)CC2)n1` [Compound 3, N^α-Phenylacetyl-N^ε-acryloyl-L-lysine-4-(6-ethinylpyridin-2-yl)piperazide] returned an IC50 in series [1] of 10.2 µM. The inactivation efficiency (kinact/KI) in series [2] is 3450 M⁻¹ s⁻¹.

`C=CC(=O)NCCCC[C@H](NC(=O)Cc1ccccc1)C(=O)N1CCN(c2ccc([N+](=O)[O-])nc2)CC1` [Compound 2]: the concentration for half-maximal inhibition (IC50) in series [1] is 8.99 µM. Besides, the “kinact/KI hTGase 2” value in series [3] is on record as 8460 (710) ^c M^−1s^−1.

For the molecule N,N-dimethylated casein [DMC], the Michaelis constant (Km) in series [4] worked out at 17.5 µM. Also, the Ki in series [4] (read-out: Ki (substrate inhibition)) amounted to 135 µM. Also, in series [4] (pH 8.0, 30 °C), the Vmax is given as 16.0 (1.1) mA mL s^−1 mg^−1.
